We go through 24 compounds from patent publication US4352928A, “5,6-Alkylenepyrimidine derivative” (Mitsubishi Yuka Pharmaceutical Co., Ltd., priority 1979, dated 1982).

Read-outs that look alike come from different tables or passages of the source.

One data set has as its system blood sugar level. Briefly: Blood Sugar Level Lowering Effect (2-deoxy-D-glucose induced high blood sugar level). The format is in vivo, ICR-JCL mouse, male. Particulars: po, mouse, 1 hour after 2-deoxy-D-glucose 500 mg/kg, read-out: Suppressive Ratio; for inhibition in vivo at 30 mg/kg: 30 mg/kg p.o. The protocol: To a ICR-JCL mouse, male, having the weight ranging from 25 to 30 g. was orally administered the test sample and, after 15 minutes, 2-deoxy-D-glucose was administered into the cavity of the mouse in the amount of 500 mg/kg to induce a high blood sugar level. The blood was taken after 1 hour, and the blood sugar concentration was determined in the blood serum obtained upon centrifugation, by means of a commercially available test kit (trade name: Glucomesser, produced by Tokyo Zooki Kagaku Co., Ltd., Japan). The suppressive ratio was calculated based on the following equation. [formula] A: Blood sugar level of the positive control group B: Blood sugar level of the negative control group
C: Blood sugar level of the test sample administered group

For data set [1], the system named is Blood Platelet Aggregation. Briefly: Blood Platelet Aggregation Suppressive Effect (collagen-induced, platelet rich plasma). The conditions noted are these: Oryctolagus cuniculus, 2 min, read-out: Suppressive Ratio. The format is cell-based, rabbit. The protocol: A rabbit was starved for 18 hours, and the veinal blood was taken from the carotid artery of the rabbit. […] The mixture was centrifuged at 200 G for 15 minutes to collect the platelet rich plasma (PRP). The residual portion was further centrifuged at 2000 G for 15 minutes to collect the platelet poor plasma (PPP). Subsequently, 250 μl. of the PRP was placed in a cuvette, and the methanol solution containing the test sample of the concentration set forth in Table 4 was added. Incubation was carried out for 2 minutes, and a collagen solution was added to the incubated solution to result in the final concentration of 3 μg./ml. so as to induce aggregation. The condition of the aggregation was measured in the Aggregation Meter (available from Shenco Co., Ltd.) and recorded.
The suppressive ratio was calculated based on the following equation. [formula] A: Maximum aggregation ratio observed when a solvent only was added. B: Maximum aggregation ratio observed when the test sample was added.

Another data set has as its system inflammation. Description: Anti-Inflammatory Effect (carrageenan-induced swelling of the hind foot). The format is in vivo, Wister male rat. The conditions noted are these: po, rat, 3 hours after carrageenan, read-out: Suppressive Ratio; for inhibition in vivo at 50 mg/kg: 50 mg/kg p.o. The protocol:
A Wister male rat having the weight ranging from 120 to 150 g. was starved for 18 hours, and to this was then orally administered the test sample. After lapse of one hour, 0.05 ml. of 1% solution of carrageenan was administered through subcutaneous injection in the plantar surface of the right hind foot to produce inflammation. The volume of the right hind foot was measured prior to the injection of carrageenan and again at 3 hours after the administration through injection. The ratio of the increase of the foot volume was calculated to express in percent based on the measured values. The so calculated ratio was compared with the calculated ratio on the control data to give the dropsical swelling suppressive ratio.

The subject of the next data set is blood pressure. Briefly: Anti-Hypertensive Effect (spontaneously hipertensive rat). In kind it is in vivo, male. Particulars: SHR. How it is done:
To a spontaneously hipertensive rat (SHR), male, aged 20-30 weeks, blood pressure under contraction 150 mmHg. was orally administered the test sample. The mean blood pressure of the rat was measured under non-anesthetic conditions at 1, 3, 6 and 24 hours after the administration via cannula inserted into the main artery in the abdomen.

For data set [2] the following is noted: Biochem. & Biophys. Res. Commu., 34, 495 (1969); cited from earlier work.
For data set [3] the following is noted: Japanese Patent Provisional Publication No. 35-12079/1960; cited from earlier work.
The conditions of data set [4]: Japanese Patent Provisional Publication No. 35-12079/1960; cited from earlier work. This is another data set of the same source.
A further data set relates to ICR-JCL mouse. Briefly: Acute Toxicity on Mouse. Details: species or system male. Particulars: in vivo, po. How it is done: A ICR-JCL mouse, male, was starved for 18 hours, and to the mouse was orally administered the test sample suspended in 1% tragacantha solution. The condition was observed during one week after the administration and the LD50 was calculated.
Where [5] appears, read: 100 μM, rabbit PRP, collagen 3 μg/ml.

Regarding `Nc1nc(N2CCN(Cc3ccccc3)CC2)nc2c1CCC2` [Compound No. 56, 2-(4-Benzylpiperazino)-4-amino-5,6-trimethylenepyrimidine], the inhibition in vivo at 30 mg/kg with blood sugar level turned out to be 44.5%.
On to `C1CCc2c(nc(N3CCNCC3)nc2N2CCCC2)C1` [compound 45, 2-Piperazino-4-pyrrolidino-5,6-tetramethylenepyrimidine], for which the inhibition at 30 µM in data set [1] (rabbit PRP, collagen 3 μg/ml) was 72%.
For the compound `Nc1nc(N2CCN(c3ccc(Cl)cc3)CC2)nc2c1CCCC2` [compound 29, 2-[4-(4-Chlorophenyl)piperazino]-4-amino-5,6-tetramethylenepyrimidine], the inhibition in vivo at 50 mg/kg in the data set with inflammation came to 46.8%. For the same compound, in the data set with blood sugar level (10 mg/kg p.o.), the inhibition in vivo at 10 mg/kg was found to be 49.1%.
As for `Nc1nc(N2CCN(c3ccccn3)CC2)nc2c1CCCC2` [Compound No. 32, 2-[4-(2-Pyridyl)piperazino]-4-amino-5,6-tetramethylenepyrimidine], in the data set on blood pressure (50 mg/kg p.o.), the “Change of Blood Pressure at 3 Hours after Administration” value (from here on “Change of Blood Pressure at 3 Hours”) is listed as -18 mmHg. In addition, in the data set with blood sugar level, the inhibition in vivo at 30 mg/kg was determined as 60.1%.
With `Nc1nc(N2CCNCC2)nc2c1CCC2` [Compound No. 54, 2-Piperazino-4-amino-5,6-trimethylenepyrimidine], in the data set on blood sugar level, the inhibition in vivo at 30 mg/kg turned out to be 107%.
`CC(=O)Oc1ccccc1C(=O)O` [Aspirin, reference compound]: the inhibition at 100 µM in data set [1] turned out to be 100%.
With `Nc1nc(N2CCN(C(=S)Nc3ccccc3)CC2)nc2c1CCCC2` [compound 23, 2-(Phenylthiocarbamoylpiperazino)-4-amino-5,6-tetramethylenepyrimidine], in the data set on inflammation, the inhibition in vivo at 50 mg/kg stood at 23.9%.
`CN1CCN(c2nc3c(c(N4CCCC4)n2)CCCC3)CC1` [compound 46, 2-(4-Methylpiperazino)-4-pyrrolidino-5,6-tetramethylenepyrimidine]: in data set [1] (rabbit PRP, collagen 3 μg/ml), the inhibition at 30 µM was determined as 100%.
Regarding `Nc1nc(N)c2c(n1)CCCC2` [2,4-diamino-5,6-tetramethylenepyrimidine], in data set [2], the antagonism against pteridine result was “has antagonism against pteridine”. The carcinostatic effect result in data set [3] was “has a carcinostatic effect”. The antibacterial activity entry in data set [4] is reported as “antibacterial activity”.
With `O=CN1CCN(c2nc3c(c(N4CCOCC4)n2)CCCC3)CC1` [compound 47, 2-(4-Formylpiperazino)-4-morpholino-5,6-tetramethylenepyrimidine], the inhibition at 30 µM in data set [1] (rabbit PRP, collagen 3 μg/ml) worked out at 100%.
For the compound `CN(C)c1nc(N2CCNCC2)nc2c1CCCC2` [compound 41, 2-Piperazino-4-dimethylamino-5,6-tetramethylenepyrimidine], the inhibition in vivo at 30 mg/kg in the data set on blood sugar level turned out to be 50.8%.
Regarding `Nc1nc(N2CCNCC2)nc2c1CCCC2` [Compound No. 1, 2-Piperazino-4-amino-5,6-tetramethylenepyrimidine], the inhibition at 100 µM in data set [1] (setting [5]) came to 100%. Further, the inhibition in vivo at 30 mg/kg in the data set with blood sugar level worked out at 67.8%.
Regarding `Nc1nc(N2CCN(C(=O)C=Cc3ccco3)CC2)nc2c1CCCC2` [Compound No. 14, 2-[4-{3-(Furan-2-yl)acryloyl}piperazino]-4-amino-5,6-tetramethylenepyrimidine], the inhibition in vivo at 25 mg/kg in the data set with inflammation (25 mg/kg p.o.) was found to be 53.9%. Moreover, the inhibition in vivo at 30 mg/kg in the data set with blood sugar level came out at 60.2%.
For `Nc1nc(N2CCN(Cc3ccccc3)CC2)nc2c1CCCC2` [Compound No. 3, 2-(4-Benzylpiperazino)-4-amino-5,6-tetramethylenepyrimidine], in the data set on inflammation, the inhibition in vivo at 50 mg/kg is 46%.
As for `OCCNc1nc(N2CCNCC2)nc2c1CCCC2` [compound 51, 2-Piperazino-4-(2-hydroxyethyl)amino-5,6-tetramethylenepyrimidine], the inhibition at 100 µM in data set [1] (setting [5]) stood at 89.1%.
Take `Nc1nc(N2CCN(C(=O)C=Cc3ccccc3[N+](=O)[O-])CC2)nc2c1CCCC2` [compound 11, 2-[4-(2-Nitrocinnamoyl)piperazino]-4-amino-5,6-tetramethylenepyrimidine]: in the data set on blood pressure (50 mg/kg p.o.), the “Change of Blood Pressure at 3 Hours” value is recorded as -17 mmHg.
Take `C1CCc2c(nc(N3CCNCC3)nc2N2CCOCC2)C1` [compound 48, 2-Piperazino-4-morpholino-5,6-tetramethylenepyrimidine]: the inhibition at 30 µM in data set [1] (rabbit PRP, collagen 3 μg/ml) turned out to be 46%. Besides, the inhibition in vivo at 30 mg/kg with blood sugar level was 95.9%.
As for `Nc1nc(N2CCN(C(=O)C=Cc3ccccc3)CC2)nc2c1CCCC2` [Compound No. 10, 2-(4-Cinnamoylpiperazino)-4-amino-5,6-tetramethylenepyrimidine], the inhibition in vivo at 50 mg/kg in the data set on inflammation amounted to 79.9%. Further, the “Change of Blood Pressure at 3 Hours” value in the data set with blood pressure (25 mg/kg p.o.) was -22 mmHg.
On to `Nc1nc(N2CCN(C(=O)Nc3ccccc3)CC2)nc2c1CCCC2` [Compound No. 18, 2-(4-Phenylcarbamoylpiperazino)-4-amino-5,6-tetramethylenepyrimidine], for which the inhibition in vivo at 50 mg/kg with inflammation turned out to be 33.8%. Also, the “Change of Blood Pressure at 3 Hours” value in the data set on blood pressure (50 mg/kg p.o.) is -17 mmHg.
Consider `CNc1nc(N2CCNCC2)nc2c1CCCC2` [Compound No. 35, 2-Piperazino-4-methylamino-5,6-tetramethylenepyrimidine], for which the inhibition at 100 µM in data set [1] (setting [5]) is 87.7%. The inhibition in vivo at 30 mg/kg in the data set on blood sugar level turned out to be 77.4%.
In the case of `Nc1nc(N2CCNCC2)nc2c1CCCCC2` [Compound No. 63, 2-Piperazino-4-amino-5,6-pentamethylenepyrimidine], in the data set on blood sugar level, the inhibition in vivo at 30 mg/kg is 78.9%.
For the compound `Nc1nc(N2CCN(c3ccccc3)CC2)nc2c1CCCC2` [compound 28, 2-(4-Phenylpiperazino)-4-amino-5,6-tetramethylenepyrimidine], the inhibition in vivo at 50 mg/kg with inflammation is 52.7%.
The LD50 is the dose expected to kill half of the subjects tested. A high value points to a less toxic substance. Consider `CN1CCN(c2nc3c(c(N4CCOCC4)n2)CCCC3)CC1` [compound 49, 2-(4-Methylpiperazino)-4-morpholino-5,6-tetramethylenepyrimidine], for which, in data set [1] (rabbit PRP, collagen 3 μg/ml), the inhibition at 30 µM is 95.2%. Moreover, the LD50 in the data set on ICR-JCL mouse was over 500 mg/kg.
With `C=CCN1CCN(c2nc(N)c3c(n2)CCCC3)CC1` [Compound No. 4, 2-(4-Allylpiperazino)-4-amino-5,6-tetramethylenepyrimidine], the inhibition in vivo at 50 mg/kg with inflammation is 51.2%.
